Where two headings read alike, the source gives them in different places.
Columns and labels:
CYP1A = details: liver microsomes of pretreated male rats; cited from earlier work
CYP2B = details: liver microsomes of pretreated male rats; cited from earlier work
CYP3A = details: liver microsomes of pretreated male rats; cited from earlier work
rat liver microsomes [1] = experiment: Enantioselective analysis; assay type: in vitro ADME; details: for enantiomeric enrichment of the parent compound: racemic substrate; for enantiomeric fraction (EF) of metabolite, range: range over microsomal preparations
[2] = cited from earlier work
rat liver microsomes [3] = details: for parent compound detected at end of incubation (% of initial amount): 30 min; for HEPOXB formed (% of the HEPTA added): substrate HEPTA
[4] = microsomes from DX-pretreated rats
[5] = microsomes from PB-pretreated rats
[6] = microsomes from VH-pretreated rats
[7] = microsomes from DX- and VH-pretreated rats
[8] = formed from cis- and trans-chlordane
[9] = substrate racemic C-CHLORD, microsomes from PB-pretreated rats

In the case of `CCC1(c2ccccc2)C(=O)NC(=O)NC1=O` [PB, phenobarbital], the “CYP1A activity relative to microsomes from VH-pretreated animals” value (CYP1A) is listed as 4 times, the “CYP2B activity relative to microsomes from VH-pretreated animals” value (CYP2B) is listed as 96 times and the “CYP3A activity relative to microsomes from VH-pretreated animals” value (CYP3A) is listed as 2 times.

With `ClC1=C(Cl)[C@]2(Cl)[C@H]3[C@H](Cl)[C@@H](Cl)C[C@H]3[C@@]1(Cl)C2(Cl)Cl` (relative stereo) [T-CHLORD, trans-chlordane] the “enantiomeric enrichment of the parent compound” value (rat liver microsomes [1]; [4]) was “slight enrichment of (-)-T-CHLORD”, the “enantiomeric enrichment of the parent compound” value (rat liver microsomes [1]; [5]) was “(-)-T-CHLORD was highly enriched” and the “enantiomeric enrichment of the parent compound” value (rat liver microsomes [1]; [6]) was “No enantiomeric enrichment”. The “enantiomeric enrichment in tissues” value ([2]; rats treated with T-CHLORD) was “(-)-T-CHLORD is enriched”, the “parent compound detected at end of incubation (% of initial amount)” value (rat liver microsomes [3]; [4]) was 80% and the “parent compound detected at end of incubation (% of initial amount)” value (rat liver microsomes [3]; [5]) was 32%. For the same molecule, the “parent compound detected at end of incubation (% of initial amount)” value (rat liver microsomes [3]; [6]) was 94%.

For `ClC1=C(Cl)[C@]2(Cl)[C@@H]3[C@@H](Cl)[C@@H]4O[C@@H]4[C@@H]3[C@@]1(Cl)C2(Cl)Cl` (single isomer, unassigned; isomer a) [HEPOXA, heptachlor epoxide isomer A], the “formation as metabolite from HEPTA” value (rat liver microsomes [3]; all three rat liver microsomal preparations) was “not to HEPOXA”.

In the case of `ClC1=C(Cl)C2(Cl)C3C(Cl)C=CC3C1(Cl)C2(Cl)Cl` (stereo not drawn) [HEPTA, Heptachlor], the “formation as metabolite from both chlordane isomers” value (rat liver microsomes [3]; microsomal incubations with T-CHLORD and C-CHLORD) is reported as “not detected”, the “change of parent compound levels in incubation” value (shortened to “change of parent compound levels”) (rat liver microsomes [3]; [7]) is reported as “significant decrease” and the “change of parent compound levels” value (rat liver microsomes [3]; [5]) is reported as “significant decrease”. The “parent compound detected at end of incubation (% of initial amount)” value (rat liver microsomes [3]; [5]) was 6%.

With `ClC1=C(Cl)C2(Cl)[C@H]3C[C@H](Cl)[C@H](Cl)[C@H]3C1(Cl)C2(Cl)Cl` (stereo partly drawn) [C-CHLORD, cis-Chlordane] the “enantiomeric enrichment of the parent compound” value (rat liver microsomes [1]; [4]) was “did not reach statistical significance”, the “enantiomeric enrichment of the parent compound” value (rat liver microsomes [1]; [5]) was “(-)-C-CHLORD was only modestly enriched” and the “enantiomeric enrichment of the parent compound” value (rat liver microsomes [1]; [6]) was “(-)-C-CHLORD was only modestly enriched”. For the same molecule, the “change of parent compound levels” value (rat liver microsomes [3]; [7]) was “no statistically significant change” and the “change of parent compound levels” value (rat liver microsomes [3]; [5]) was “clearly decreased”.

With `ClC1=CC2C(C1Cl)C1(Cl)C(Cl)=C(Cl)C2(Cl)C1(Cl)Cl` (stereo not drawn) [DCC, 1,2-dichlorochlordene] the “enantiomeric fraction (EF) of metabolite, range” value (shortened to “enantiomeric fraction (EF)”) (rat liver microsomes [1]; [8]) was 0.42-0.90, the “enantiomeric enrichment of metabolite” value (rat liver microsomes [1]; substrate racemic C-CHLORD, microsomes from DX-pretreated rats) was “clear enrichment of E1-DCC” and the “enantiomeric enrichment of metabolite” value (rat liver microsomes [1]; [9]) was “enrichment of E2-DCC”. For the same molecule, the “enantiomeric enrichment of metabolite” value (rat liver microsomes [1]; substrate racemic C-CHLORD, microsomes from VH-pretreated rats) was “clear enrichment of E1-DCC”.

For `ClC1=C(Cl)[C@]2(Cl)[C@@H]3[C@@H](Cl)[C@H]4O[C@H]4[C@@H]3[C@@]1(Cl)C2(Cl)Cl` (single isomer, unassigned; isomer b) [HEPOXB, heptachlor epoxide isomer B], the “enantiomeric fraction (EF)” value (rat liver microsomes [1]; formed from heptachlor) was 0.44-0.54, the “enantiomeric enrichment of metabolite” value (rat liver microsomes [1]; substrate racemic HEPTA, microsomes from DX-pretreated rats) was “enrichment of (-)-HEPOXB” and the “enantiomeric enrichment of metabolite” value (rat liver microsomes [1]; substrate racemic HEPTA, microsomes from PB-pretreated rats) was “slight but significant enrichment of (+)-HEPOXB”. The “enantiomeric enrichment of metabolite” value (rat liver microsomes [1]; substrate racemic HEPTA, microsomes from VH-pretreated rats) was “enrichment of (-)-HEPOXB”, the “HEPOXB formed (% of the HEPTA added)” value (rat liver microsomes [3]; [4]) was 47% and the “HEPOXB formed (% of the HEPTA added)” value (rat liver microsomes [3]; [5]) was 82%. The “HEPOXB formed (% of the HEPTA added)” value (rat liver microsomes [3]; [6]) was 33%.

For `ClC1=C(Cl)[C@]2(Cl)[C@H]3[C@H]([C@H](Cl)[C@]4(Cl)O[C@H]34)[C@@]1(Cl)C2(Cl)Cl` [OXY, oxychlordane], the “enantiomeric fraction (EF)” value (rat liver microsomes [1]; [8]) was 0.45-0.89, the “enantiomeric enrichment of metabolite” value (rat liver microsomes [1]; [9]) was “(+)-OXY was enriched” and the “enantiomeric enrichment of metabolite” value (rat liver microsomes [1]; substrate racemic T-CHLORD, microsomes from DX-pretreated rats) was “(-)-OXY was slightly enriched”. The “enantiomeric enrichment of metabolite” value (rat liver microsomes [1]; substrate racemic T-CHLORD, microsomes from PB-pretreated rats) was “Enrichment of (+)-OXY”, the “enantiomeric enrichment in vivo” value ([2]; female rats treated for 28 days with trans-nonachlor or T-CHLORD) was “enrichment of (+)-OXY” and the “enantiomeric enrichment in vivo” value ([2]; male rats, all time-points investigated) was “(-)-OXY was enriched”. The “OXY formed (% of the total C-CHLORD added)” value (rat liver microsomes [3]; substrate C-CHLORD, microsomes from PB-pretreated rats) was “approximately 2%” and the “OXY levels formed, PB versus DX microsomes” value (rat liver microsomes [3]; substrate T-CHLORD, PB- versus DX-pretreated rats) was 9 times.

From PMC3748599 (Environmental science & technology, 2013)
